Experiments:
[1] = Clinical PK interaction, PART 2: zastaprazan and meloxicam in healthy subjects; type: in vivo, human (healthy subjects)
Procedure: (§1) Zastaprazan may be used not only for acid-related gastric diseases but also for preventing gastric damage caused by NSAIDs.
(§2) • JP-1366, 20 mg 2 capsules (zastaprazan citrate salt 40 mg)
• Mobic capsule 15 mg (meloxicam 15 mg)
Subjects who volunteered for PART 2 were assigned a subject number on the day before the first clinical trial drug administration (−1 d) of Period 1, and then administered two JP-1366 capsules on 1 d to 5 d of Period 1, administered one meloxicam capsule on 15 d to 19 d of Period 2, and co-administered two JP-1366 capsules and one meloxicam capsule on 22 d to 26 d of Period 3. Blood samples were collected from each subject at a designated time for the PK evaluation of the clinical trial drug, and all subjects underwent safety evaluation according to the designated schedule.
(§3) Blood samples were collected at designated times for the PK evaluation of zastaprazan (JP-1366).

[2] = test system: rat gastric damage model induced by naproxen; test: Antiulcer activity in naproxen-induced acute peptic ulcer (gastric damage) rat model; type: in vivo, Male Sprague-Dawley (SD) rat
Procedure: [table] […] The dose for each individual was converted based on the body weight before administration, and is administered orally in a dosage of 5 ml per kg of body weight. […] Administration frequency and administration period: Once a day for five days (a total of 5 times) After the test, the gastric damage by the test substance was evaluated using the ulcer index. […] The removed stomach was incised along the greater curvature, the contents are removed, and the incised stomach was washed cleanly with saline solution, spread out well with a cotton swab, fixed with pins, and then photographed. The gastric damage area and the total stomach area were measured from the photographed stomach using an image program (Leica Application Suite V4), and the ulcer index was calculated as Ulcer index (%)=Damage area (mm^2)/Total area (mm^2)×100. The experimental results were statistically analyzed through Mann-Whitney analysis using a commercial statistical processing program (IBM SPSS Statistics version 25.0).

[3] = Safety evaluation of zastaprazan with aceclofenac, meloxicam, or naproxen in healthy subjects; type: in vivo, human (healthy subjects); conditions: zastaprazan 40 mg alone and co-administered with aceclofenac 100 mg, meloxicam 15 mg or naproxen 500 mg
Text: Zastaprazan may be used not only for acid-related gastric diseases but also for preventing gastric damage caused by NSAIDs. […] Blood samples were collected from each subject at a designated time for the PK evaluation of the clinical trial drug, and all subjects underwent safety evaluation according to the designated schedule. All subjects who completed the clinical trial underwent a post-study visit on 14 d to 20 d, including vital sign measurement, physical examination, adverse reaction check, confirmation of prior/concurrent medication, clinical laboratory tests, and electrocardiography. […] Blood samples were collected from each subject at a designated time for the PK evaluation of the clinical trial drug, and all subjects underwent safety evaluation according to the designated schedule. All subjects who completed the clinical trial underwent a post-study visit on 31 d to 37 d, including vital sign measurement, physical examination, adverse reaction check, confirmation of prior/concurrent medication, clinical laboratory tests, and electrocardiography. […] Blood samples were collected from each subject at a designated time for the PK evaluation of the clinical trial drug, and all subjects underwent safety evaluation according to the designated schedule. […]

[4] = Clinical PK interaction, PART 1: zastaprazan and aceclofenac in healthy subjects; type: in vivo, human (healthy subjects); conditions: for Cmax / AUC(0-t): human, oral; for Cmax: n = 22, plasma, mean ± SD; for AUC(0-t): plasma, n = 22, mean ± SD
Procedure: as §1, §2
• Aertal tablet (aceclofenac 100 mg)
Subjects who volunteered for PART 1 were assigned a subject number on the day before the first clinical trial drug administration (−1 d) of Period 1, and then administered one aceclofenac tablet on 1 d of Period 1, administered two JP-1366 capsules on 4 d to 8 d of Period 2, and co-administered two JP-1366 capsules and one aceclofenac tablet on 9 d of Period 3. Blood samples were collected from each subject at a designated time for the PK evaluation of the clinical trial drug, and all subjects underwent safety evaluation according to the designated schedule.
as §3

clinical = type: in vivo, human (healthy subjects)
Procedure: as §2
Blood samples were collected from each subject at a designated time for the PK evaluation of the clinical trial drug, and all subjects underwent safety evaluation according to the designated schedule.
as §3

For `Cc1cnc(NC(=O)C2=C(O)c3ccccc3S(=O)(=O)N2C)s1` [Meloxicam, meloxicam, reference compound], the AUC(0-t) ([1]; human, in vivo, oral, M (meloxicam 15 mg alone), n = 22, mean ± SD, read-out: meloxicam AUCT, SS) was 41800 ± 16400 ng·h/mL, the AUC(0-t) ([1]; human, in vivo, oral, Z + M (zastaprazan 40 mg and meloxicam 15 mg), n = 22, mean ± SD, read-out: meloxicam AUCT, SS) was 44000 ± 18800 ng·h/mL and the Cmax ([1]; human, oral, M (meloxicam 15 mg alone), n = 22, plasma, mean ± SD, read-out: meloxicam Cmax, SS) was 2480 ± 880 ng/mL. It also gave a Cmax ([1]; human, oral, Z + M (zastaprazan 40 mg and meloxicam 15 mg), n = 22, plasma, mean ± SD, read-out: meloxicam Cmax, SS) of 2640 ± 920 ng/mL.

With `Cc1cccc(C)c1CNc1cc(C(=O)N2CCC2)cn2c(C)c(C)nc12.O=C(O)CC(O)(CC(=O)O)C(=O)O` [Zastaprazan, azetidin-1-yl{8-[(2,6-dimethylbenzyl)amino]-2,3-dimethylimidazo[1,2-a]pyridin-6-yl}methanone citrate salt] the “ulcer area (antiulcer activity), FIG. 1” value ([2]; JP-1366 2 mg/kg oral once a day for five days with naproxen 40 mg/kg, non-fasting rats, stomach removed 4 h after last naproxen) was “rapid decrease in the ulcer area”, the “antiulcer efficacy compared with esomeprazole” value ([2]; JP-1366 2 mg/kg vs esomeprazole 2 mg/kg oral, once a day for five days with naproxen 40 mg/kg) was “superior to that of the control substance, esomeprazole” and the “GMR [90% CI] of zastaprazan AUCT,SS” value ([1]; human, in vivo) was 1.3332 (1.1494 to 1.5463). For the same molecule, the AUC(0-t) ([1]; human, in vivo, 40 mg) was 1120 ± 534 ng·h/mL, the Cmax ([1]; human, in vivo, 40 mg) was 237 ± 72.8 ng/mL and the “PK interaction between zastaprazan and meloxicam” value ([1]; summary of PART 2) was “No clinically significant PK interactions”. For the same molecule, the safety [3] was “no safety concerns”, the “geometric mean ratio (GMR) [90% CI] of zastaprazan AUCT,SS” value ([4]; Z+A to Z) was 0.9490 (0.9096 to 0.9902) and the “geometric mean ratio (GMR) [90% CI] of zastaprazan Cmax,SS” value ([4]; Z+A to Z) was 1.0868 (0.9554 to 1.2362). The Cmax ([4]; Z (zastaprazan 40 mg alone), read-out: zastaprazan Cmax, SS) was 242 ± 84 ng/mL, the AUC(0-t) ([4]; Z (zastaprazan 40 mg alone), read-out: zastaprazan AUCT, SS) was 1540 ± 724 ng·h/mL and the AUC(0-t) ([4]; Z + A (zastaprazan 40 mg and aceclofenac 100 mg), read-out: zastaprazan AUCT, SS) was 1440 ± 627 ng·h/mL. The “PK interaction between zastaprazan and aceclofenac” value ([4]; summary of PART 1) was “No clinically significant PK interactions”, the AUC(0-t) (clinical; human, in vivo, oral, Z (zastaprazan 40 mg alone), n = 22, mean ± SD, read-out: zastaprazan AUCT, SS) was 1380 ± 695 ng·h/mL and the Cmax (clinical; human, oral, Z (zastaprazan 40 mg alone), n = 22, plasma, mean ± SD, read-out: zastaprazan Cmax, SS) was 264 ± 88.5 ng/mL. For the same molecule, the “PK interaction between zastaprazan and naproxen” value (clinical; summary of PART 3) was “No clinically significant PK interactions”.

Molecule `O=C(O)COC(=O)Cc1ccccc1Nc1c(Cl)cccc1Cl` [Aceclofenac, aceclofenac, reference compound] has a Cmax ([4]; A (aceclofenac 100 mg alone), read-out: aceclofenac Cmax, SS) of 10100 ± 3160 ng/mL, a Cmax ([4]; Z + A (zastaprazan 40 mg and aceclofenac 100 mg), read-out: aceclofenac Cmax, SS) of 11800 ± 2560 ng/mL and an AUC(0-t) ([4]; A (aceclofenac 100 mg alone), read-out: aceclofenac AUCT, SS) of 20400 ± 4870 ng·h/mL. It also gave an AUC(0-t) ([4]; Z + A (zastaprazan 40 mg and aceclofenac 100 mg), read-out: aceclofenac AUCT, SS) of 20800 ± 3840 ng·h/mL.
